From patent US7807625B2, “Anti-wrinkle composition” (Grant Industries, Inc, priority 2006, dated 2010)

Tested on: type I collagen, normal human dermal fibroblasts
Assay: Collagen assay: type I collagen by sandwich ELISA in fibroblast culture-conditioned medium
Assay type: cell-based
Details: 4 days, LbGp 1.25 mg/ml and/or palmitoyl hexapeptide-6 0.20 mg/ml
Experimental: Normal human dermal fibroblasts (Cambrex, Walkersville, Md.) were seeded into a 96-well plate and grown to confluence. They were then challenged with several concentrations of the test samples for 4 days. The fibroblast culture-conditioned medium was harvested and tested for type I collagen by sandwich ELISA using affinity-purified antibodies. Magnesium ascorbyl phosphate (MAP) was tested along with the sample as a positive control.

## palmitoyl hexapeptide-6 [Hydrophobic peptide alone]
  Type I collagen Assay: 420
